Assay results reported in patent US20240189615A1, “METHOD AND SYSTEM FOR PRODUCING APOPTOTIC MONONUCLEAR CELLS” (MACO PHARMA, priority 2020, published 2024).

Experiments:
JURKAT cells [1] = test: Apoptosis test (annexin-V FITC / propidium iodide flow cytometry), delta-apoptosis; format: cell-based, human
Method: To obtain the desired quantity of JURKAT cells, they were cultured in an RPMI 1640 medium supplemented with foetal calf serum (10% v/v), 1% L-glutamine (Lonza) and 1% penicillin-streptomycin (Lonza). Cells were grown in culture flasks placed in an incubator at 37° C. and 5% CO2. The JURKAT doubling time was approximately 27 hours.
The cells were suspended in a solution of PBS (phosphate buffer saline) or in a 2% haematocrit solution comprising 1/14 of the anticoagulant ACD-A, a 50/50 v/v mixture of NaCl and plasma. The final volume was such that the thickness of the cell suspension in the container was around 3 mm.
In the case of UVA irradiation, the cell solution also contained 200 ng/ ml or 333° ng/ml of 8-MOP.
At the end of the irradiation step, the cell solutions with a haematocrit level of 2% are washed in order to recover as many JURKAT cells as possible for culture with low contamination by red blood cells. To do this, the components were separated by density gradient using a Ficoll solution (GE Healthcare).
After JURKAT isolation, the cells were washed three times to remove the Ficoll solution. The first two washes were performed in a PBS solution with 2 mM EDTA (Thermo Fisher), and the third was performed in a PBS solution. The cells were then re-suspended in supplemented RPMI medium and counted using Vi-cell and ABX in order to estimate the number of JURKAT that had been isolated and to assess the quantity of residual red blood cells.
(§1) To monitor the parameters of interest (apoptosis and inhibition of JURKAT proliferation), the cells were cultured using cell counting. To do this, 5.10^6 treated cells and 5.10^6 untreated cells were seeded in 10 ml of culture medium.
Apoptosis was studied by flow cytometry, using double labelling of cells with annexin-V coupled to a fluorophore FITC and propidium iodide (PI).
Delta-apoptosis was determined by the following formula:
Δapoptosis=(% apoptosis of treated cells−% apoptosis of untreated cells) [Math. 1]

JURKAT cells [2] = test: Inhibition of cell proliferation (Vi-cell counting); format: cell-based, human
Method: The rate of inhibition of cell proliferation is determined by dividing the difference between the proliferation rate of the unirradiated control cells and the proliferation rate of the irradiated cells by the proliferation rate of the unirradiated control cells, the rate of cell proliferation being determined by dividing the total number of final cells by the total number of starting cells. The rate of inhibition of proliferation was determined 3 days after irradiation and after the cells had been cultured.
as §1
The initial JURKAT population was 5.10^6 cells per culture flask. The number of cells per culture flask was then counted by Vi-cell.
To do this, the culture medium with the cells was centrifuged at 1500 rpm for 5 minutes and the pellet was resuspended in supplemented RPMI culture medium. Depending on the cell density, a 1/10 dilution in PBS could be performed.
The percentage inhibition of cell proliferation on day n (Dn) was determined by the following formula:
% PI(Dn)=100−% P(Dn) [Math. 2]
in which % P(Dn) is the cell proliferation rate at n days, determined by the following formula: […]

[3] = JURKAT cells 330.10^6 in 300 ml, 2% haematocrit plasma/saline, 333 ng/ml 8-MOP, bag, Macogenic G2 (Maco Pharma ECP system)

COc1c2occc2cc2ccc(=O)oc12 [8-MOP, 8-methoxypsoralen]
UVA dose from which acceptance criterion in terms of delta-apoptosis was achieved (JURKAT cells [1]; [3]): ≥ 2 J/cm^2 | UVA dose meeting the acceptance criterion in terms of delta-apoptosis (JURKAT cells [1]; JURKAT cells in PBS, 200 ng/ml 8-MOP, Petri dish, BS02 irradiator, criterion delta-apoptosis 30-40% one day, 50-60% two days after irradiation): 0.13 J/cm^2 | rate of cell necrosis (JURKAT cells [1]; JURKAT cells in PBS, 200 ng/ml 8-MOP, all doses of UVA radiation tested (0.03-0.4 J/cm^2)): below 1% | equivalent UVA dose (sigmoidal model of delta-apoptosis), BS02 irradiator (JURKAT cells [1]; JURKAT cells in plasma, 333 ng/ml 8-MOP, BS02 irradiator in UVA): 4 J/cm^2 | equivalent UVA dose (sigmoidal model of delta-apoptosis), Macogenic G2 (JURKAT cells [1]; JURKAT cells in plasma, 333 ng/ml 8-MOP, delivered with Macogenic G2): 2.1 J/cm^2 | UVA dose at which acceptance criterion for delta-apoptosis was reached (JURKAT cells [1]; JURKAT cells in plasma/saline 50/50, 2% haematocrit, 333 ng/ml 8-MOP, Petri dish, BS02 irradiator): 4 J/cm^2 | UVA dose from which acceptance criterion in terms of proliferation inhibition was achieved (JURKAT cells [2]; [3]): ≥ 2 J/cm^2 | UVA dose meeting the acceptance criterion in terms of inhibition of proliferation (JURKAT cells [2]; JURKAT cells in PBS, 200 ng/ml 8-MOP, Petri dish, BS02 irradiator, criterion inhibition >70% 3 days after irradiation): 0.13 J/cm^2 | UVA dose at which acceptance criterion for rate of proliferation inhibition was reached (JURKAT cells [2]; JURKAT cells in plasma/saline 50/50, 2% haematocrit, 333 ng/ml 8-MOP, Petri dish, BS02 irradiator, D+3): 3 J/cm^2
